Measured values from patent publication US11708564B2 (priority 2017, dated 2023).

Test system: active D-proline reductase
Test: Conversion of D-proline analog substrates by E. coli cells expressing active D-proline reductase (PrdA, PrdB, PrdH), TLC analysis
Type: biochemical, Peptoclostridium difficile 630
Conditions: substrate 10 mM, DTT 25 mM, 6 hours, E. coli BL21(DE3) cells OD 50 in 0.1 M phosphate buffer pH 8.0, TLC
Description: The obtained E. coli cells were adjusted to a final OD of 50, followed by centrifugation. After primary washing, E. coli cells were diluted with 1 mL of 0.1 M phosphate buffer (pH 8.0). Next, each 200 ul of the diluted samples was dispensed, and DTT (final concentration of 25 mM) and various substrates (final concentration of 10 mM, FIG. 11A) were added and allowed to react for 6 hours, followed by TLC analysis.
When cis-4-hydroxy-D-proline or trans-4-hydroxy-D-proline is subjected to the conversion reaction, 5-amino-4-hydroxypentanoic acid is produced.

SMILES	product formation on TLC after the conversion reaction	reaction rate of the conversion by D-proline reductase, compared with D-proline
O=C(O)[C@H]1CCN1 [D-azetidine-2-carboxylic acid]	GABA production was clearly observed on TLC	relatively low reaction rate, as compared with D-proline
O=C(O)[C@H]1C[C@@H](O)CN1 [cis-4-hydroxy-D-proline]	substrate reduction on TLC and newly formed TLC spot were observed	relatively low reaction rate, as compared with D-proline
O=C(O)[C@H]1C[C@H](O)CN1 [trans-4-hydroxy-D-proline]	substrate reduction on TLC and newly formed TLC spot were observed	relatively low reaction rate, as compared with D-proline
